From US12378240B2, “Naphthyridinone-aniline compounds for treatment of dermal disorders” (NFlection Therapeutics, Inc., priority 2018, dated 2025)

System: not listed separately
Experiment: Human liver S9 fraction stability assay
Assay type: in vitro ADME
Details: pH 7.4, human liver S9, 1 μM test compound, 2 mg/mL protein, 1 mM NADPH, 37° C., read-out: Liver S9 fraction stability, t1/2
Description: Compounds can be assessed for metabolic stability in human skin by assessing their rate of disappearance from human S9 skin fraction. Similarly, compounds can be assessed for metabolic stability in human liver by assessing their rate of disappearance from human S9 liver fraction. The protocol below is used to assess the difference between skin and hepatic metabolism.
The assay was carried out in 96-well microtiter plates at 37° C. Reaction mixtures (25 μL) contained a final concentration of 1 μM test compound, 2 mg/mL liver or skin protein, and 1 mM NADPH in buffer (100 mM potassium phosphate, pH 7.4 buffer with 1 mM EDTA, 3 mM MgCl2). At each of the time points (0, 15, 30, and 60 minutes), 150 μL of quench solution (100% acetonitrile with 0.1% formic acid) with internal standard was transferred to each well. Besides the zero minute controls, mixtures containing the same components except the NADPH were also prepared as the negative control. Verapamil or testosterone was included as a positive control to verify assay performance. Plates were sealed and centrifuged at 4° C. for 15 minutes at 4000 rpm. The supernatant was transferred to fresh plates for LC/MS/MS analysis.
All samples were analyzed on LC/MS/MS using an AB Sciex API 4000 instrument, coupled to a Shimadzu LC-20AD LC Pump system. Analytical samples were separated using a Waters Atlantis T3 dC18 reverse phase HPLC column (20 mm×2.1 mm) at a flow rate of 0.5 mL/min. The mobile phase consisted of 0.1% formic acid in water (solvent A) and 0.1% formic acid in 100% acetonitrile (solvent B).
The extent of metabolism was calculated as the disappearance of the test compound, compared to the 0-min control reaction incubations. Initial rates were calculated for the compound concentration and used to determine t1/2 values and subsequently, the intrinsic clearance, CLint=(0.693) (1/t1/2 (min)) (mL incubation/mg of S9 protein).
Table 4 lists t1/2 values for the above liver S9 stability assay. […]

half-life at 1 μM	SMILES
50 to 200 min	O=c1c2c(Nc3ccc(I)cc3F)cncc2ccn1OCCO [Compound 1.007, 8-(2-Fluoro-4-iodophenylamino)-2-(2-hydroxyethoxy)-2,6-naphthyridin-1(2H)-one]
50 to 200 min	O=C1c2c(cncc2Nc2ccc(I)cc2F)CCN1OCCO [Compound 1.010, 8-(2-Fluoro-4-iodophenylamino)-2-(2-hydroxyethoxy)-3,4-dihydro-2,6-naphthyridin-1(2H)-one]
≤ 50 min	O=C1NCCc2cncc(Nc3ccc(I)cc3F)c21 [Compound 1.012, 8-((2-Fluoro-4-iodophenyl)amino)-3,4-dihydro-2,6-naphthyridin-1(2H)-one]

Target: MEK1 (Homo sapiens (Human), UniProt Q02750)
Sequence (Q02750 whole entry): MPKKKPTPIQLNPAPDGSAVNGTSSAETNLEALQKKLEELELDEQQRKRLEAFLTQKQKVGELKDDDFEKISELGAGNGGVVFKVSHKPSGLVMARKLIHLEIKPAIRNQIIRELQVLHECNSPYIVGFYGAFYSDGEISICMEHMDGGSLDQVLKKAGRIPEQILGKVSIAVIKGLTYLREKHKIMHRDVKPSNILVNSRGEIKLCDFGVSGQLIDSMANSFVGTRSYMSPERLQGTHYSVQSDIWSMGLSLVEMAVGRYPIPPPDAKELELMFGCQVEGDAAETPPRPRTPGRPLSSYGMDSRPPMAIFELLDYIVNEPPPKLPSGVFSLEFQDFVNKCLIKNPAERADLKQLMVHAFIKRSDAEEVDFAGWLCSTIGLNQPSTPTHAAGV
Experiment: MEK1 inhibition assay (Z'-LYTE biochemical assay)
Details: MAP2K1 (MEK1)/inactive MAPK1 (ERK2)/Ser/Thr 03 cascade, 10 point titration; read-out: IC50 against MEK1
Description: MEK1 inhibitory activity of compounds were tested using the following procedure (protocol available at thermofisher.com/content/dam/LifeTech/migration/files/drug-discovery/pdfs.par.60256.file.dat/20130430%20ssbk%20customer%20protocol%20and%20assay%20conditions.pdf). The Z′-LYTE biochemical assay (ThermoFisher) employs a fluorescence-based, coupled-enzyme format and is based on the differential sensitivity of phosphorylated and non-phosphorylated peptides to proteolytic cleavage.
Test compounds in 100% DMSO were screened in 1% DMSO (final) in the well. For 10 point titrations, 3-fold serial dilutions are conducted from the starting concentration of 30 μM.
After the 1 hour incubation, 5 μL of a 1:1024 dilution of Development Reagent A (available from Invitrogen, catalog no. PV3295) was added.
ATP solutions were diluted to a 4× working concentration in Kinase Buffer (50 mM HEPES pH 7.5, 0.01% BRIJ-35, 10 mM MgCl2, 1 mM EGTA). ATP Km apparent was previously determined using a Z′-LYTE assay. The Development Reagent was diluted in Development Buffer (available from Invitrogen, catalog no. P3127).
Assay Protocol: 2.5 μL of 4× test compound or 100 nL of 100× Test Compound plus 2.4 μL Kinase Buffer, 5 μL of the 2× Peptide/Kinase Mixture, 2.5 μL of 4×ATP Solution were added to the plates and placed on a shake plate for 30-seconds. The kinase reaction was allowed to proceed for 60-minute at room temperature, before 5 μL of Development Reagent Solution was added, and the mixture agitated for 30-seconds on a shake plate. The mixture was incubated for 60-minute at room temperature. Fluorescence was measured using a plate reader and the data were analyzed.
This control yielded 100% cleaved peptide in the Development Reaction. The 100% Phosphorylation Control, which consisted of a synthetically phosphorylated peptide of the same sequence as the peptide substrate, was designed to allow for the calculation of percent phosphorylation. This control yielded a very low percentage of cleaved peptide in the Development Reaction. The 0% Phosphorylation and 100% Phosphorylation Controls allow for the calculation of the percent phosphorylation achieved in a specific reaction well.
The minimum emission ratio in a screen was established by the 0% Inhibition Control, which contained active kinase. This control was designed to produce a 10-50% phosphorylated peptide in the Kinase Reaction. […]
A known inhibitor control standard curve, 10 point titration, was run for each individual kinase on the same plate as the kinase to ensure the kinase was inhibited within an expected IC50 range previously determined.
The following controls are prepared for each concentration of Test Compound assayed. […] The expected value for a non-fluorescence compound should be 0%. […]
The data in Table A was calculated. […]

IC50	SMILES
≤ 150 nM	O=c1c2c(Nc3ccc(I)cc3F)cncc2ccn1C[C@@H](O)CO [Compound 1.001, (R)-2-(2,3-Dihydroxypropyl)-8-(2-fluoro-4-iodophenylamino)-2,6-naphthyridin-1(2H)-one]
≤ 150 nM	O=c1c2c(Nc3ccc(I)cc3F)cncc2ccn1C[C@H](O)CO [Compound 1.002, (S)-2-(2,3-Dihydroxypropyl)-8-(2-fluoro-4-iodophenylamino)-2,6-naphthyridin-1(2H)-one]
> 1500 nM	O=C(O)Cn1ccc2cncc(Nc3ccc(I)cc3F)c2c1=O [Compound 1.004, 2-(8-(2-Fluoro-4-iodophenylamino)-1-oxo-2,6-naphthyridin-2(1H)-yl)acetic acid]
> 1500 nM	COC(=O)Cn1ccc2cncc(Nc3ccc(I)cc3F)c2c1=O [Compound 1.005, Methyl 2-(8-(2-fluoro-4-iodophenylamino)-1-oxo-2,6-naphthyridin-2(1H)-yl)acetate]
